Assay results published in US10047083B2, “Dihydropyrimidinoisoquinolinones and pharmaceutical compositions thereof for the treatment of inflammatory disorders” (GALAPAGOS NV, priority 2011, dated 2018).

Assays:
human neutrophils = test: Human neutrophil migration assay (embelin-induced); assay type: cell-based; settings: neutrophils from human buffy coat, 30 min compound pre-incubation, migration towards embelin at EC80 for 1 h, ATPlite readout, read-out: human neutrophil migration inhibition (Neutrophils)
Method: 2. Cellular Assays 2.1. Human Neutrophil Migration Assay
The effect of agonists or antagonists for GPR84 can therefore be assayed in a neutrophil migration test. In the neutrophil migration assay, neutrophils, freshly isolated from buffy coats from human volunteers, are treated with a compound for 30 minutes. Subsequently, the neutrophils are transferred to the upper wells of a Corning HTS transwell 96 permeable support system, of which the lower wells are filled with a embelin solution at EC80 (concentration which gives 80% of the activity of GPR84). After 1 h of incubation, migration of the neutrophils towards embelin in the lower compartment can be quantified by measuring the ATP-content of the lower wells using the ATPlite luminescence ATP detection assay system (Perkin Elmer, Cat. No.: 436110).
A human buffy coat is diluted with an equal volume of ice cold DPBS. 20 mL of the diluted buffy coat is gently mixed with 4 mL of ACD buffer (140 mM citric acid, 200 mM sodium citrate and 220 mM dextrose). Then, 12 mL of the 6% dextran/0.9% NaCl solution (15 g dextran T2000 and 2.25 g NaCl dissolved in 250 mL H2O) is added to the mixture and the samples are inverted gently up to 20 times. The total volume was transferred to a new recipient and incubated at room temperature for 1 h for complete separation of the two phases to occur. The yellowish supernatant is then transferred to a clean centrifugation tube and centrifuged for 12 minutes at 1300 rpm and 4° C. After centrifugation, the supernatant is discarded and the remaining cell pellet is rapidly resuspended in 12 mL of ice-cold H2O for red blood cell lysis to occur. After 20 seconds, 4 mL of ice-cold 0.6 M KCl is added. Samples are mixed carefully and centrifuged for 6 minutes at 1300 rpm, 4° C. The supernatant is discarded and the red blood cell lysis procedure is repeated one more time. Subsequently, the cell pellet is resuspended in 4 mL of DPBS and layered over 5 mL of Lymphoprep (Nycomed Pharma, Cat. No.: 1114545) in a 15 mL centrifuge tube. After centrifugation for 12 min at 1300 rpm, 4° C., the supernatant is removed and the cell pellet, containing the neutrophils, is resuspended in 25 mL chemotaxis buffer (RPMI 1640 medium, supplemented with 10 mM HEPES; freshly made for each experiment)
A cell suspension of 8.9×10^6 cells per milliliter is prepared. 20 μL of compound solution in chemotaxis buffer is added to 180 μL cell suspension. The mixture is incubated at 37° C. for 30 minutes with intermediate resuspension of the cells after 15 minutes. Following this, 70 μL cell suspension is transferred to the upper compartment of a Corning HTS transwell 96 permeable support system with 5.0 μm pore size polycarbonate membrane (Corning, Cat. No.: 3387). The receiver well of the transwell system is then filled with 200 μL chemotaxis buffer containing compound and chemotactic agent (embelin). After incubation at 37° C. in 5% CO2 for 1 h, the upper plate of the transwell system is removed and the cell suspension in the receiver plate is transferred to a 96-well V-bottom plate. 50 μL of DPBS is added to the receiver plate to prevent remaining cells from drying out. The V-bottom plate is centrifuged for 6 minutes at 1500 rpm. The supernatant is removed and the cells are resuspended in 50 μL DPBS. The cells are then transferred back to the receiver plate of the transwell system. After this, 100 μL ATPlite solution (Perkin Elmer, Cat. No: 436110) was added to the cells. The plate is incubated for 10 minutes in the dark, while shaking. […] of cell lysate is then transferred to a white 96-well plate and luminescence is measured. The detected luminescent signal is considered as linearely related to the number of cells having migrated from the upper well to the receiver well.

GPR84 = molecular target: T1, GPR84 (Homo sapiens, UniProt Q9NQS5); test: GTPγS binding assay (GPR84); assay type: biochemical; settings: membranes from stable cell line over expressing GPR84; 3,3′ di indolylmethane at EC80
T1 construct: expressed in transfected cells; membranes used
T1 sequence (Q9NQS5 whole entry): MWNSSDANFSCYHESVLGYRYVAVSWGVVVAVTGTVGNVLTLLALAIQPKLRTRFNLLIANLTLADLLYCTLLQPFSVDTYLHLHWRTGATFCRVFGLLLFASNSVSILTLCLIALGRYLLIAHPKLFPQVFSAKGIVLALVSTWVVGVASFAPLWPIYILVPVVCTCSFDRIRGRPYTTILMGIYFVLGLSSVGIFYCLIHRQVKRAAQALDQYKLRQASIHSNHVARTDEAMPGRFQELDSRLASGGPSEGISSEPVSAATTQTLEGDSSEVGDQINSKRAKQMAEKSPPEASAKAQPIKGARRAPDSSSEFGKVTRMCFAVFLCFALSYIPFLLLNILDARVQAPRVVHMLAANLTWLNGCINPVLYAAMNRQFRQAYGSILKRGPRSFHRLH
Method in brief: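 Membranes (20 μg/well) from a stable GPR84-overexpressing line, pre-incubated with 0.1 μM GDP for 15 min at 4° C, mixed with 0.1 nM [35S]GTPγS and WGA SpA beads in 20 mM HEPES pH 7.4, 5 mM MgCl2, 250 mM NaCl, 0.05% BSA, 75 ug/mL saponin; 90 min at room temperature, then scintillation counting.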

Row | IC50 (human neutrophils) [nM] | IC50 (GPR84) [nM] | SMILES
1 | 101 to 500 | 101 to 500 | Cn1cncc1C#Cc1ccc2c(c1)CCn1c-2cc(OCC2COCCO2)nc1=O (stereo not drawn) [Compound 16, 2-([1,4]dioxan-2-ylmethoxy)-9-(3-methyl-3H-imidazol-4-ylethynyl)-6,7-dihydro-pyrimido[6,1-a]isoquinolin-4-one]
2 | 0.01 to 100 | 101 to 500 | O=c1nc(OCC2COCCO2)cc2n1CCc1cc(C#Cc3cccnc3)ccc1-2 (stereo not drawn) [Compound 41, 2-([1,4]dioxan-2-ylmethoxy)-9-pyridin-3-ylethynyl-6,7-dihydro-pyrimido[6,1-a]isoquinolin-4-one]
3 | 101 to 500 | 0.01 to 100 | O=c1nc(OCC2COCCO2)cc2n1CCc1cc(C#Cc3ccccn3)ccc1-2 (stereo not drawn) [Compound 36, 2-([1,4]dioxan-2-ylmethoxy)-9-pyridin-2-ylethynyl-6,7-dihydro-pyrimido[6,1-a]isoquinolin-4-one]
4 | 0.01 to 100 | 0.01 to 100 | CCOc1ncccc1-c1ccc2c(c1)CCn1c-2cc(OCC2COCCO2)nc1=O (stereo not drawn) [Compound 69, 2-([1,4]dioxan-2-ylmethoxy)-9-(2-ethoxy-pyridin-3-yl)-6,7-dihydro-pyrimido[6,1-a]isoquinolin-4-one]
5 | 0.01 to 100 | 0.01 to 100 | O=c1nc(OCC2COCCO2)cc2n1CCc1cc(-c3ccc(N4CCOCC4)nc3)ccc1-2 (stereo not drawn) [Compound 62, 2-([1,4]dioxan-2-ylmethoxy)-9-(6-morpholin-4-yl-pyridin-3-yl)-6,7-dihydro-pyrimido[6,1-a]isoquinolin-4-one]
6 | 0.01 to 100 | 0.01 to 100 | CC(C)c1nc(COc2ccc3c(c2)CCn2c-3cc(OCC3COCCO3)nc2=O)no1 (stereo not drawn) [Compound 80, 2-([1,4]dioxan-2-ylmethoxy)-9-(5-isopropyl-[1,2,4]oxadiazol-3-ylmethoxy)-6,7-dihydro-pyrimido[6,1-a]isoquinolin-4-one]
7 | 0.01 to 100 | 0.01 to 100 | CC(C)Oc1ccc(-c2ccc3c(c2)CCn2c-3cc(OCC3COCCO3)nc2=O)cn1 (stereo not drawn) [Compound 60, 2-([1,4]Dioxan-2-ylmethoxy)-9-(6-isopropoxy-pyridin-3-yl)-6,7-dihydro-pyrimido[6,1-a]isoquinolin-4-one]
8 | 0.01 to 100 | 0.01 to 100 | CC(C)C(O)C#Cc1ccc2c(c1)CCn1c-2cc(OCC2COCCO2)nc1=O (stereo not drawn) [Compound 90, 2-([1,4]Dioxan-2-ylmethoxy)-9-(3-hydroxy-4-methyl-pent-1-ynyl)-6,7-dihydro-pyrimido[6,1-a]isoquinolin-4-one]
9 | 0.01 to 100 | 101 to 500 | CC(C)(C)COc1ccc2c(c1)CCn1c-2cc(OC[C@@H]2COCCO2)nc1=O [Compound 158, 9-(2,2-dimethyl-propoxy)-2-((S)-1-[1,4]dioxan-2-ylmethoxy)-6,7-dihydro-pyrimido[6,1-a]isoquinolin-4-one]
10 | 0.01 to 100 | 0.01 to 100 | O=c1nc(OCC2COCCO2)cc2n1CCc1cc(C#CCNc3ccccc3)ccc1-2 (stereo not drawn) [Compound 107, 2-([1,4]dioxan-2-ylmethoxy)-9-(3-phenylamino-prop-1-ynyl)-6,7-dihydro-pyrimido[6,1-a]isoquinolin-4-one]
11 | 0.01 to 100 | 101 to 500 | O=c1nc(OC[C@H]2COCCO2)cc2n1CCc1cc(CCC3(O)CCCC3)ccc1-2 [Compound 169, 2-((R)-1-[1,4]Dioxan-2-ylmethoxy)-9-[2-(1-hydroxy-cyclopentyl)-ethyl]-6,7-dihydro-pyrimido[6,1-a]isoquinolin-4-one]
12 | 101 to 500 | 101 to 500 | COc1ncccc1-c1ccc2c(c1)CCn1c-2cc(OCC2COCCO2)nc1=O (stereo not drawn) [Compound 56, 2-([1,4]dioxan-2-ylmethoxy)-9-(2-methoxy-pyridin-3-yl)-6,7-dihydro-pyrimido[6,1-a]isoquinolin-4-one]
13 | 101 to 500 | 101 to 500 | N#CCOc1ccc2c(c1)CCn1c-2cc(OCC2COCCO2)nc1=O (stereo not drawn) [Compound 7, [2-([1,4]dioxan-2-ylmethoxy)-4-oxo-6,7-dihydro-4H-pyrimido[6,1-a]isoquinolin-9-yloxy]-acetonitrile]
14 | 0.01 to 100 | 0.01 to 100 | CCCOCCOc1ccc2c(c1)CCn1c-2cc(OC[C@@H]2COCCO2)nc1=O [Compound 170, 2-((S)-1-[1,4]Dioxan-2-ylmethoxy)-9-(2-propoxy-ethoxy)-6,7-dihydro-pyrimido[6,1-a]isoquinolin-4-one]
15 | 0.01 to 100 | 0.01 to 100 | CC(C)(C)C#Cc1ccc2c(c1)CCn1c-2cc(OCC2COCCO2)nc1=O (stereo not drawn) [Compound 52, 9-(3,3-Dimethyl-but-1-ynyl)-2-([1,4]dioxan-2-ylmethoxy)-6,7-dihydro-pyrimido[6,1-a]isoquinolin-4-one]
16 | 101 to 500 | 101 to 500 | O=c1nc(OCC2COCCO2)cc2n1CCc1cc(OCc3ncco3)ccc1-2 (stereo not drawn) [Compound 8, 2-([1,4]dioxan-2-ylmethoxy)-9-(oxazol-2-ylmethoxy)-6,7-dihydro-pyrimido[6,1-a]isoquinolin-4-one]
17 | 0.01 to 100 | 0.01 to 100 | O=c1nc(OC[C@@H]2COCCO2)cc2n1CCc1cc(COCC3CCCC3)ccc1-2 [Compound 147, 9-cyclopentylmethoxymethyl-2-((S)-1-[1,4]dioxan-2-ylmethoxy)-6,7-dihydro-pyrimido[6,1-a]isoquinolin-4-one]
18 | 0.01 to 100 | 101 to 500 | CC(O)CCCc1ccc2c(c1)CCn1c-2cc(OC[C@@H]2COCCO2)nc1=O (stereo partly drawn) [Compound 150, 2-((S)-1-[1,4]dioxan-2-ylmethoxy)-9-(4-hydroxy-pentyl)-6,7-dihydro-pyrimido[6,1-a]isoquinolin-4-one]
19 | 0.01 to 100 | 101 to 500 | O=c1nc(OC[C@@H]2COCCO2)cc2n1CCc1cc(COCC3CCOCC3)ccc1-2 [Compound 161, 2-((S)-1-[1,4]dioxan-2-ylmethoxy)-9-(tetrahydro-pyran-4-ylmethoxymethyl)-6,7-dihydro-pyrimido[6,1-a]isoquinolin-4-one]
20 | 0.01 to 100 | 0.01 to 100 | CCCC(O)C#Cc1ccc2c(c1)CCn1c-2cc(OCC2COCCO2)nc1=O (stereo not drawn) [Compound 98, 2-([1,4]dioxan-2-ylmethoxy)-9-(3-hydroxy-hex-1-ynyl)-6,7-dihydro-pyrimido[6,1-a]isoquinolin-4-one]
21 | 0.01 to 100 | 101 to 500 | O=c1nc(OCC2COCCO2)cc2n1CCc1cc(CCC(O)c3cccnc3)ccc1-2 (stereo not drawn) [Compound 116, 2-([1,4]dioxan-2-ylmethoxy)-9-(3-hydroxy-3-pyridin-3-yl-propyl)-6,7-dihydro-pyrimido[6,1-a]isoquinolin-4-one]
22 | 0.01 to 100 | 101 to 500 | COCCOCC#Cc1ccc2c(c1)CCn1c-2cc(OC[C@@H]2COCCO2)nc1=O [Compound 133, 2-((S)-1-[1,4]dioxan-2-ylmethoxy)-9-[3-(2-methoxy-ethoxy)-prop-1-ynyl]-6,7-dihydro-pyrimido[6,1-a]isoquinolin-4-one]
23 | 101 to 500 | 101 to 500 | CNC(=O)c1ccc(-c2ccc3c(c2)CCn2c-3cc(OCC3COCCO3)nc2=O)cc1 (stereo not drawn) [Compound 42, 4-[2-([1,4]dioxan-2-ylmethoxy)-4-oxo-6,7-dihydro-4H-pyrimido[6,1-a]isoquinolin-9-yl]-N-methyl-benzamide]
24 | 101 to 500 | 0.01 to 100 | CCCCCc1ccc2c(c1)CCn1c-2cc(OC[C@H]2COCCO2)nc1=O [Compound 121, 2-((R)-1-[1,4]dioxan-2-ylmethoxy)-9-pentyl-6,7-dihydro-pyrimido[6,1-a]isoquinolin-4-one]
